Reference: ChEMBL document CHEMBL1201862, “PubChem BioAssay data set” (2004)
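Cultured in 96-well plates, cells were exposed to test compound for 48 hours across five concentrations. Abbreviation: GI50, concentration required for 50% inhibition of growth.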 Active and inactive are the calls of the source. Rule as the data show it: active = GI50 up to about 1.1 µM and inactive = higher.

How the values were obtained:
Assay in all cases: DTP human tumour cell line panel, 48 h
786-0 = system: 786-0
A498 = system: A498
ACHN = system: ACHN
BT-549 = system: BT-549
CAKI-1 = system: CAKI-1
CCRF-CEM = system: CCRF-CEM
COLO 205 = system: COLO 205
DU-145 = system: DU-145
EKVX = system: EKVX
HCC 2998 = system: HCC 2998
HCT-116 = system: HCT-116
HCT-15 = system: HCT-15
HL-60 = system: HL-60
HOP-62 = system: HOP-62
HT-29 = system: HT-29
Hs-578T = system: Hs-578T
IGROV-1 = system: IGROV-1
K562 = system: K562
KM12 = system: KM12
LOX IMVI = system: LOX IMVI
M14 = system: M14
MCF7 = system: MCF7
MDA-MB-435 = system: MDA-MB-435
MDA-N = system: MDA-N
MOLT-4 = system: MOLT-4
NCI-H23 = system: NCI-H23
NCI-H460 = system: NCI-H460
NCI/ADR-RES = system: NCI/ADR-RES
OVCAR-3 = system: OVCAR-3
OVCAR-4 = system: OVCAR-4
OVCAR-5 = system: OVCAR-5
PC-3 = system: PC-3
RPMI-8226 = system: RPMI-8226
RXF 393 = system: RXF 393
SF-268 = system: SF-268
SF-295 = system: SF-295
SK-MEL-28 = system: SK-MEL-28
SK-MEL-5 = system: SK-MEL-5
SN12C = system: SN12C
SNB-19 = system: SNB-19
SR = system: SR
SW-620 = system: SW-620
U-251 = system: U-251
UACC-257 = system: UACC-257
UACC-62 = system: UACC-62
UO-31 = system: UO-31
A549 = system: A549
HOP-92 = system: HOP-92
MDA-MB-231 = system: MDA-MB-231
NCI-H226 = system: NCI-H226
NCI-H522 = system: NCI-H522
OVCAR-8 = system: OVCAR-8
SF-539 = system: SF-539
SK-MEL-2 = system: SK-MEL-2
SK-OV-3 = system: SK-OV-3
SNB-75 = system: SNB-75
T47D = system: T47D
TK-10 = system: TK-10
Malme-3M = system: Malme-3M

COC(=O)CSC(=S)Nc1nnc(NC(=S)SCOC(C)=O)n1C(=S)SCC(=O)OC
GI50 (786-0): > 100 µM (inactive) | GI50 (A498): > 100 µM (inactive) | GI50 (ACHN): > 100 µM (inactive) | GI50 (BT-549): > 100 µM (inactive) | GI50 (CAKI-1): > 100 µM (inactive) | GI50 (CCRF-CEM): > 100 µM (inactive) | GI50 (COLO 205): > 100 µM (inactive) | GI50 (DU-145): > 100 µM (inactive) | GI50 (EKVX): > 100 µM (inactive) | GI50 (HCC 2998): > 100 µM (inactive) | GI50 (HCT-116): > 100 µM (inactive) | GI50 (HCT-15): > 100 µM | GI50 (HL-60): > 100 µM (inactive) | GI50 (HOP-62): 6.97 µM (inactive) | GI50 (HT-29): > 100 µM (inactive) | GI50 (Hs-578T): > 100 µM (inactive) | GI50 (IGROV-1): > 100 µM (inactive) | GI50 (K562): > 100 µM (inactive) | GI50 (KM12): > 100 µM (inactive) | GI50 (LOX IMVI): > 100 µM (inactive) | GI50 (M14): > 100 µM (inactive) | GI50 (MCF7): > 100 µM (inactive) | GI50 (MDA-MB-435): > 100 µM (inactive) | GI50 (MDA-N): > 100 µM (inactive) | GI50 (MOLT-4): > 100 µM (inactive) | GI50 (NCI-H23): > 100 µM (inactive) | GI50 (NCI-H460): > 100 µM (inactive) | GI50 (NCI/ADR-RES): > 100 µM (inactive) | GI50 (OVCAR-3): > 100 µM (inactive) | GI50 (OVCAR-4): > 100 µM (inactive) | GI50 (OVCAR-5): > 100 µM (inactive) | GI50 (PC-3): > 100 µM (inactive) | GI50 (RPMI-8226): > 100 µM (inactive) | GI50 (RXF 393): > 100 µM (inactive) | GI50 (SF-268): > 100 µM (inactive) | GI50 (SF-295): > 100 µM (inactive) | GI50 (SK-MEL-28): > 100 µM (inactive) | GI50 (SK-MEL-5): > 100 µM (inactive) | GI50 (SN12C): > 100 µM (inactive) | GI50 (SNB-19): > 100 µM (inactive) | GI50 (SR): > 100 µM (inactive) | GI50 (SW-620): > 100 µM (inactive) | GI50 (U-251): > 100 µM (inactive) | GI50 (UACC-257): > 100 µM (inactive) | GI50 (UACC-62): > 100 µM (inactive) | GI50 (UO-31): > 100 µM (inactive)

CC(=O)OC(Cn1cncn1)(Cn1cncn1)c1ccc(Cl)cc1Cl
GI50 (786-0): > 100 µM (inactive) | GI50 (A498): > 100 µM (inactive) | GI50 (A549): > 100 µM (inactive) | GI50 (BT-549): > 100 µM (inactive) | GI50 (CAKI-1): > 100 µM (inactive) | GI50 (CCRF-CEM): > 100 µM (inactive) | GI50 (COLO 205): > 100 µM (inactive) | GI50 (DU-145): > 100 µM (inactive) | GI50 (EKVX): > 100 µM (inactive) | GI50 (HCC 2998): > 100 µM (inactive) | GI50 (HCT-15): > 100 µM | GI50 (HL-60): > 100 µM (inactive) | GI50 (HOP-62): > 100 µM (inactive) | GI50 (HOP-92): > 100 µM (inactive) | GI50 (HT-29): > 100 µM (inactive) | GI50 (Hs-578T): > 100 µM (inactive) | GI50 (IGROV-1): > 100 µM (inactive) | GI50 (K562): > 100 µM (inactive) | GI50 (KM12): > 100 µM (inactive) | GI50 (LOX IMVI): > 100 µM (inactive) | GI50 (M14): > 100 µM (inactive) | GI50 (MCF7): > 100 µM (inactive) | GI50 (MDA-MB-231): > 100 µM (inactive) | GI50 (MDA-MB-435): > 100 µM (inactive) | GI50 (MOLT-4): > 100 µM (inactive) | GI50 (NCI-H226): > 100 µM (inactive) | GI50 (NCI-H460): > 100 µM (inactive) | GI50 (NCI-H522): > 100 µM (inactive) | GI50 (NCI/ADR-RES): > 100 µM (inactive) | GI50 (OVCAR-3): > 100 µM (inactive) | GI50 (OVCAR-4): > 100 µM (inactive) | GI50 (OVCAR-5): > 100 µM (inactive) | GI50 (OVCAR-8): > 100 µM (inactive) | GI50 (PC-3): > 100 µM (inactive) | GI50 (RPMI-8226): > 100 µM (inactive) | GI50 (RXF 393): > 100 µM (inactive) | GI50 (SF-268): > 100 µM (inactive) | GI50 (SF-295): > 100 µM (inactive) | GI50 (SF-539): > 100 µM (inactive) | GI50 (SK-MEL-28): > 100 µM (inactive) | GI50 (SK-MEL-2): > 100 µM (inactive) | GI50 (SK-MEL-5): > 100 µM (inactive) | GI50 (SK-OV-3): > 100 µM (inactive) | GI50 (SNB-19): > 100 µM (inactive) | GI50 (SNB-75): > 100 µM (inactive) | GI50 (SW-620): > 100 µM (inactive) | GI50 (T47D): > 100 µM (inactive) | GI50 (TK-10): > 100 µM (inactive) | GI50 (U-251): > 100 µM (inactive) | GI50 (UACC-257): > 100 µM (inactive) | GI50 (UO-31): > 100 µM (inactive)

[O-][S+](Nc1ccccc1)c1ccc(-c2ccccc2)cc1 (configuration not stated)
GI50 (786-0): > 100 µM (inactive) | GI50 (A549): > 100 µM (inactive) | GI50 (ACHN): > 100 µM (inactive) | GI50 (BT-549): 8.57 µM (inactive) | GI50 (CCRF-CEM): > 100 µM (inactive) | GI50 (COLO 205): 72.3 µM (inactive) | GI50 (DU-145): > 100 µM (inactive) | GI50 (EKVX): > 100 µM (inactive) | GI50 (HCC 2998): > 100 µM (inactive) | GI50 (HCT-116): > 100 µM (inactive) | GI50 (HCT-15): > 100 µM | GI50 (HL-60): > 100 µM (inactive) | GI50 (HOP-62): > 100 µM (inactive) | GI50 (HT-29): > 100 µM (inactive) | GI50 (Hs-578T): > 100 µM (inactive) | GI50 (IGROV-1): > 100 µM (inactive) | GI50 (K562): > 100 µM (inactive) | GI50 (KM12): 58.6 µM (inactive) | GI50 (LOX IMVI): 28.5 µM (inactive) | GI50 (MCF7): > 100 µM (inactive) | GI50 (MDA-MB-231): > 100 µM (inactive) | GI50 (MDA-MB-435): > 100 µM (inactive) | GI50 (MDA-N): > 100 µM (inactive) | GI50 (MOLT-4): > 100 µM (inactive) | GI50 (Malme-3M): > 100 µM (inactive) | GI50 (NCI-H226): > 100 µM (inactive) | GI50 (NCI-H23): > 100 µM (inactive) | GI50 (NCI-H460): > 100 µM (inactive) | GI50 (NCI-H522): > 100 µM (inactive) | GI50 (NCI/ADR-RES): > 100 µM (inactive) | GI50 (OVCAR-3): > 100 µM (inactive) | GI50 (OVCAR-4): 38.1 µM (inactive) | GI50 (OVCAR-5): > 100 µM (inactive) | GI50 (OVCAR-8): 45.8 µM (inactive) | GI50 (RPMI-8226): > 100 µM (inactive) | GI50 (SF-268): > 100 µM (inactive) | GI50 (SF-295): 55.8 µM (inactive) | GI50 (SF-539): > 100 µM (inactive) | GI50 (SK-MEL-28): > 100 µM (inactive) | GI50 (SK-MEL-5): > 100 µM (inactive) | GI50 (SN12C): > 100 µM (inactive) | GI50 (SNB-19): > 100 µM (inactive) | GI50 (SR): > 100 µM (inactive) | GI50 (SW-620): > 100 µM (inactive) | GI50 (T47D): 11.5 µM (inactive) | GI50 (TK-10): > 100 µM (inactive) | GI50 (U-251): > 100 µM (inactive) | GI50 (UACC-257): > 100 µM (inactive) | GI50 (UACC-62): 47.4 µM (inactive) | GI50 (UO-31): > 100 µM (inactive)
